What was measured:
[1] = n-octan-1-ol/water partition (lipophilicity); format: physicochemical; conditions: 25 °C
Procedure: The lipophilicity of the ruthenium(II) complexes, which is referred to log P o/w (n-octan-1-ol/water partition coefficient), was measured as following. Ruthenium complexes were dissolved in n-octan-1-ol (to mM concentration), then solutions were added to water and the mixtures were stirred sufficiently for partitioning at 25 °C for 24 h. After that the mixtures were left for equilibration for another 2 h. The concentration of the compounds in the water phase was measured spectrophotometrically and P o/w value was calculated according to the equation: PO/w=coctanolbefore-cwater/cwater , where coctanolbefore is an initial concentration of ruthenium complex, c water denotes final concentration in water. The experiment was conducted in triplicates.

[2] = system: murine endothelial cells isolated from aorta-gonad-mesonephros (AGM) region of 10.5 dpc embryos (MAgEC 10.5); assay: Alamar Blue cell viability, MAgEC 10.5; format: cell-based; conditions: MAgEC 10.5, 24 h
Procedure: FVB mouse lung microvascular endothelial cells (MLuMEC FVB) and murine endothelial cells isolated from aorta-gonad-mesonephros (AGM) region of 10.5 dpc embryos (MAgEC 10.5) were cultured in OptiMEM with Glutamax-I (Gibco Invitrogen) supplemented with 2% fetal bovine serum (FBS), 0.4% gentamycin and 0.2% fungizone. […]
10% FBS, 1% peniciline and streptomycin and 0.2% fungizone. Cells were routinely cultured at 37 °C in a humidified incubator in 5% CO2 atmosphere.
Cell viability was measured using Alamar Blue assay. Cells were seeded on 96 wells plate with density of 1 × 10^4 cells per cm2 and cultured for 1 day. Then cells were incubated with various concentrations of compounds in medium with or without 2% FBS for 24 and 48 h under normoxic and hypoxic conditions in the darkness. Next cells were washed with PBS and incubated in Alamar Blue solution for 3 h. The cell viability was quantified at 605 nm using 560 nm excitation light (VICTOR 3V multilabel plate reader PerkinElmer or Tecan Infinite200 Reader). Experiments were performed in triplicates and each experiment was performed at least three times to get the mean values ± standard derivation. The viability was calculated with regard to the untreated cells control. The IC50 values were determined using Hill equation (Origin 9.0). […]

[3] = Luminescence quantum yield and lifetime in aqueous solution; format: physicochemical
Procedure: UV–Vis absorption spectra were recorded on a Perkin Elmer Lambda 35 spectrophotometer. Luminescence measurements were performed on a spectrofluorimeter Perkin Elmer LS55. The spectra were recorded at the room temperature in aqueous solution containing small amount of DMSO (<0.008 % v/v). The emission spectra were recorded between 470 and 860 nm upon excitation at 463 nm. The average of three scans was subjected to smoothing. For determination of the quantum yield of luminescence (Φ), aqueous solutions of [Ru(bpy)3]^2+ with a small amount of DMSO (<0.008 % v/v) were used as standards (Φ = 0.028 [14] and 0.042 [20] for air-equilibrium and deoxygenated conditions, respectively). The spectra were recorded for ruthenium complexes at the concentration less than 0.05 absorbance unit at the excitation wavelength. Values were calculated according to the following equation [21]: Φ=Φref×Aref/A×I/Iref×n^2/nref2, where I is the integrated intensity of luminescence, A is the optical density, and n is the refractive index, ref refers to the values for reference. The mean value from minimum three independent experiments was calculated.
The luminescence lifetime measurements were performed with a single photon counting technique using Fluorolog-3, Horiba Jobin Yvon. The excitation wavelength was set at 464 nm (NanoLed Diodes) and the average lifetime of luminescence was monitored at 621 nm. Luminescence decays were collected with 1,000 counts in the peak. The instrument response functions were measured using a light scattering solution of Ludox (colloidal silica, Sigma-Aldrich). Experiments were conducted at room temperature. The DAS6 software (HORIBA Scientific) was used for deconvolution of the obtained decays and for calculation of the lifetime values. The quality of the fit was judged by the χ ^2 parameter (the goodness of fit evaluation). One-exponential fit was determined to be an optimal description of the obtained results for the ruthenium compounds.

[4] = system: 4T1 breast cancer cell line; assay: Alamar Blue cell viability, 4T1; format: cell-based; conditions: 4T1, 24 h incubation
Procedure: 4T1 breast cancer cell line was cultured in RPMI-1640 (Gibco Invitrogen) with 10 % fetal bovine serum (FBS, the bovine serum albumin is a major component), 1 % penicillin and streptomycin and 0.2 % fungizone. Cells were routinely cultured at 37 °C in a humidified incubator in 5 % CO2 atmosphere. Cell viability was measured using Alamar Blue assay. Cells were seeded on 96-well plate with density of 10^4 cells per cm^2 and cultured for 24 h in medium with or without 2 % serum. Then cells were incubated with various concentrations of ruthenium compounds for 24 h in the dark. All used ruthenium complexes were freshly diluted in DMSO and then added to the appropriate medium to obtain the applied concentrations. The final DMSO concentration was kept constant at 0.05 % (v/v). Next cells were washed with PBS and incubated in AlamarBlue solution (21 times diluted in PBS) for 3 h. Alamar Blue test is based on the reduction of blue and non-fluorescent subtract (resazurin) to a pink and highly fluorescent product (resorufin) by the alive cells. Extract mechanism of the reduction is still unknown, but it is postulated that reduction occurs by mitochondrial or cytoplasmic enzymes, such as NADH dehydrogenase or diaphorase. It is still not known whether this process occurs intracellularly, at the plasma membrane surface or just in the medium as a chemical reaction. The cell viability was quantified at 605 nm using 560 nm excitation light (VICTOR 3V multilabel plate readers, PerkinElmer). Experiments were performed in triplicates and each experiment was performed at least three times to get the mean values ± standard deviation. The viability was calculated with regard to the untreated cells control. The IC50 values were determined using Hill equation (Origin 9.0): y=y0+y100-y0c^H/IC50^H+c^H

[5] = system: 4T1 cells; assay: Ruthenium uptake measured by ICP-MS; format: cell-based; conditions: 4T1, [Ru-complex] = 2 µM, 24 h
Procedure: Cells were seeded on a 6-well plate with a density of 3 × 10^5 cells per cm^2. 24 h after the incubation ruthenium complexes were added at 2 µM concentration. Cells were incubated in medium without serum for 24 h. After incubation cells were washed twice with PBS, detached by trypsin (trypsin/EDTA from Gibco) treatment, diluted in PBS and counted. Cells were digested in concentrated nitric acid overnight at room temperature and then diluted with water. The ruthenium content of the sample was determined by the inductively coupled plasma mass spectrometry (ICP-MS). Results were calculated as ruthenium concentration per cell (assuming the average volume of cell was 1.7 pL [31]).

[6] = air-equilibrated conditions, excitation 463 nm

In the case of `[Ru+2].c1ccc(-c2ccccn2)nc1.c1ccc(-c2ccnc3c2ccc2c(-c4ccccc4)ccnc23)cc1.c1ccc(-c2ccnc3c2ccc2c(-c4ccccc4)ccnc23)cc1` [[Ru(dip)2(bpy)]^2+], the “log P o/w” value [1] is reported as 0.328 ± 0.026, the IC50 ([2]; with serum (2%)) is reported as 16.7 ± 1.88 µM and the IC50 ([2]; without serum) is reported as 4.15 ± 0.57 µM. For the same molecule, the “τ, luminescence lifetime” value ([3]; air-equilibrated conditions) was 760 ± 10 ns, the “φ, quantum yield of luminescence” value [3, 6] was 0.0367 ± 0.0004 and the “τ, luminescence lifetime” value ([3]; deoxygenated conditions) was 2.51 ± 0.01 µs. The “φ, quantum yield of luminescence” value ([3]; deoxygenated conditions) was 0.1245 ± 0.0004, the IC50 ([4]; medium with serum (2 %)) was 13.6 ± 1.75 µM and the IC50 ([4]; medium without serum) was 6.79 ± 1.09 µM.

With `Cc1ccnc(-c2cc(C(=O)[O-])ccn2)c1.[Ru+2].c1ccc(-c2ccnc3c2ccc2c(-c4ccccc4)ccnc23)cc1.c1ccc(-c2ccnc3c2ccc2c(-c4ccccc4)ccnc23)cc1` [[Ru(dip)2(CH3bpy-COO)]^+] the “log P o/w” value [1] was 1.857 ± 0.079, the IC50 ([2]; with serum (2%)) was 16 ± 1.5 µM and the IC50 ([2]; without serum) was 7.23 ± 0.53 µM. The “τ, luminescence lifetime” value ([3]; air-equilibrated conditions) was 530 ± 10 ns, the “φ, quantum yield of luminescence” value [3, 6] was 0.0226 ± 0.0012 and the “τ, luminescence lifetime” value ([3]; deoxygenated conditions) was 1.02 ± 0.01 µs. For the same molecule, the “φ, quantum yield of luminescence” value ([3]; deoxygenated conditions) was 0.0429 ± 0.0004, the “relative ruthenium accumulation in cells” value [5] was “much smaller accumulation than the rest of the studied complexes” and the IC50 ([4]; medium with serum (2 %)) was 13.9 ± 3 µM. For the same molecule, the IC50 ([4]; medium without serum) was 8.66 ± 1.47 µM.

For “[Ru(dip)2(1,3-dicyclohexyl-1-[4-carbonyl-(4′-methyl-2,2′-bipyridyl)]-urea)]Cl2 [[Ru(dip)2(CH3bpy-DCU)]^2+]”, the “log P o/w” value [1] was 1.114 ± 0.012, the IC50 ([2]; with serum (2%)) was 4.62 ± 0.22 µM and the IC50 ([2]; without serum) was 2.54 ± 1.12 µM. For the same molecule, the “τ, luminescence lifetime” value ([3]; air-equilibrated conditions) was 460 ± 10 ns, the “φ, quantum yield of luminescence” value [3, 6] was 0.0044 ± 0.0002 and the “τ, luminescence lifetime” value ([3]; deoxygenated conditions) was 1.85 ± 0.02 µs. The “φ, quantum yield of luminescence” value ([3]; deoxygenated conditions) was 0.0049 ± 0.0002, the “relative ruthenium accumulation in cells” value [5] was “highest accumulation” and the IC50 ([4]; medium with serum (2 %)) was 9.01 ± 1.33 µM. It also gave an IC50 ([4]; medium without serum) of 4.71 ± 0.18 µM.

For `Cc1ccnc(-c2cc(C)ccn2)c1.[Ru+2].c1ccc(-c2ccnc3c2ccc2c(-c4ccccc4)ccnc23)cc1.c1ccc(-c2ccnc3c2ccc2c(-c4ccccc4)ccnc23)cc1` [[Ru(dip)2(CH3bpy-CH3)]^2+], the “log P o/w” value [1] was 0.484 ± 0.046, the IC50 ([2]; with serum (2%)) was 6.28 ± 0.52 µM and the IC50 ([2]; without serum) was 2.45 ± 0.42 µM. The “τ, luminescence lifetime” value ([3]; air-equilibrated conditions) was 690 ± 10 ns, the “φ, quantum yield of luminescence” value [3, 6] was 0.0254 ± 0.0009 and the “τ, luminescence lifetime” value ([3]; deoxygenated conditions) was 2.23 ± 0.01 µs. The “φ, quantum yield of luminescence” value ([3]; deoxygenated conditions) was 0.0778 ± 0.0016, the IC50 ([4]; medium with serum (2 %)) was 9.32 ± 1.37 µM and the IC50 ([4]; medium without serum) was 4.9 ± 0.3 µM.

In the case of `O=[N+]([O-])c1nccn1CCCc1ccnc(-c2ccccn2)c1.[Ru+2].c1ccc(-c2ccnc3c2ccc2c(-c4ccccc4)ccnc23)cc1.c1ccc(-c2ccnc3c2ccc2c(-c4ccccc4)ccnc23)cc1` [[Ru(dip)2(bpy-NitroIm)]^2+], the “log P o/w” value [1] is reported as 0.413 ± 0.083, the IC50 ([2]; with serum (2%)) is reported as 7.4 ± 0.81 µM and the IC50 ([2]; without serum) is reported as 4.65 ± 0.62 µM. For the same molecule, the IC50 ([4]; medium with serum (2 %)) was 18.8 ± 1.29 µM and the IC50 ([4]; medium without serum) was 10.6 ± 1.05 µM.
